From patent US9441237B2, “Auxin receptors” (THE GOVERNORS OF THE UNIVERSITY OF ALBERTA, priority 2010, dated 2016)

Experiments:
[1] = system: PsAFB6 transcript abundance in pericarp; assay: Pea split-pericarp assay, hormone applied to deseeded pericarps, PsAFB6 transcript abundance by qRT-PCR; format: in vivo, Pisum sativum; settings: deseeded 2 DAA pericarps, 50 μM hormone
Method: (§1) To examine the hormonal regulation of pericarp AFB mRNA levels, the pea split-pericarp assay was used (Ozga et al., 1992). Fruit at 2 DAA were split along the dorsal suture. Seeds were removed and pericarps were left for 12 hours prior to hormone application to reduce residual seed effects. […] For split-pod, no seed controls (SPNS), 30 μL of 0.1% aqueous Tween 80 was applied. For split-pod controls (SP), seeds were not removed after the dorsal suture was opened, but 30 μL of 0.1% aqueous Tween 80 was applied 12 hours after pericarp splitting. As a further control for the split-pericarp procedure, intact pods were also harvested at the appropriate times. All fruit subjected to split-pericarp treatments were covered with plastic to maintain humidity, and all manipulations were carried out while pericarps remained on the plant. Intact controls were harvested at the 0 hour and 12 hour treatment timing, while all split-pericarp treatments were harvested at 12, 14, 20, and 24 hours after pericarp splitting (0, 2, 8, and 12 hours after hormone treatment).
(§2) All transcript quantification was performed on a StepOnePlus sequence detector (Applied Biosystems). Reverse transcription and quantification was performed using TaqMan One-Step RT-PCR Master Mix (Applied Biosystems; final concentration 1×) and 200 ng of DNAse treated total RNA (final concentration 8 ng μL^−1) in duplicate in a final volume of 25 μL per well. The final concentration of forward and reverse primers was 300 nM each, and the final concentration of probe was 100 nM. Reverse transcription was carried out for 30 minutes at 48° C. DNA polymerase antibody was denatured at 95° C. for 10 minutes. Quantification was carried out for 40 cycles of the following program: denaturation at 95° C. for 15 seconds, primer annealing and extension at 60° C. for 1 minute. Probes were labelled at the 5′ end with FAM (6-carboxyfluorescein) and at the 3′ end with the MGB quencher (Applied Biosystems).
(§3) Relative transcript levels were calculated using the ΔCt method (Livak and Schmittgen, 2001) using the following formula, where X is an arbitrary value equal to or greater than the highest assayed Ct value and E is the reaction efficiency for the amplicon in question: Transcript abundance=(1+E)^X−Ct) (1)

[2] = system: PsAFB2 transcript abundance in pericarp; assay: Pea split-pericarp assay, hormone applied to deseeded pericarps, PsAFB2 transcript abundance by qRT-PCR; format: in vivo, Pisum sativum; settings: deseeded 2 DAA pericarps, 50 μM hormone applied 12 h after deseeding, 2, 8 and 12 h after application
Method: as §1
as §2, with “DNA polymerase antibody was denatured at 95° C. for 10 minutes.” left out, “Probes were labelled at the 5′ end with FAM (6-carboxyfluorescein) and at the 3′ end with the MGB quencher (Applied Biosystems).” left out
as §3

[3] = system: deseeded pea pericarps; assay: Deseeded pea pericarp growth / fruit abortion after hormone application (split-pericarp); format: in vivo, Pisum sativum; settings: hormone applied to deseeded ovaries
[4] = system: deseeded pea pericarps; settings: hormone applied to deseeded pericarps, split-pericarp assay; literature (Reinecke et al. 1995, 1999; Ozga and Reinecke 1999; Johnstone et al. 2005); cited from earlier work
[5] = throughout the time course (2 to 12 h after application)

Compound | effect on pericarp PsAFB6 mRNA abundance ([1]; 2 hours after application) | effect on pericarp PsAFB6 mRNA abundance [1, 5] | effect on steady-state PsAFB2 transcript abundance [2] | abortion of deseeded fruits [3] | deseeded pericarp growth [4] | effect on pericarp PsAFB6 mRNA abundance ([1]; 8 hours to 12 hours after application)
O=C(O)Cc1c[nH]c2cccc(Cl)c12 [4-Cl-IAA, 4-chloroindole-3-acetic acid] | initially reduced | reduced PsAFB6 mRNA abundance to levels similar to those found in SP controls | did not significantly affect | prevention of fruit abortion | stimulated pericarp growth | –
Cc1cccc2[nH]cc(CC(=O)O)c12 [4-Me-IAA] | – | – | – | – | capable of stimulating the expansion of deseeded pericarps, but not to the same extent as 4-Cl-IAA | –
C=C1C[C@]23C[C@@]1(O)CC[C@H]2[C@@]12CC[C@H](O)[C@@](C)(C(=O)O1)[C@H]2[C@@H]3C(=O)O [GA1] | – | – | – | – | stimulate deseeded pericarp growth | –
C=C1C[C@]23C[C@@]1(O)CC[C@H]2[C@@]12C=C[C@H](O)[C@@](C)(C(=O)O1)[C@H]2[C@@H]3C(=O)O [GA3] | – | no effect | did not significantly affect | – | stimulate deseeded pericarp growth | –
O=C(O)Cc1c[nH]c2ccccc12 [IAA, indole-3-acetic acid] | – | – | did not significantly affect | nor does it prevent the abortion of deseeded fruits | further decreases growth | increased to that observed in the SPNS pericarps
